Data published in patent US6495348B1, “Mitomycin biosynthetic gene cluster” (priority 1993, dated 2002).

Tests used:
[1] = tested on: S. lavendulae wild-type; test: MC resistance of S. lavendulae, plate count; format: cell-based, Streptomyces lavendulae
Description: To establish a physiological role for MCT in S. lavendulae, the corresponding gene (mct) was inactivated by insertion of the aphII gene from transposon Tn5 to give pDHS7704.

[2] = tested on: PJS103
Description: Construction of mct-mrd co-expression plasmid. […] The fragment contained the mrd gene under the control of the T7 promoter, including transcriptional terminator sequences (rrnB T1) upstream and downstream of mrd.
The cultures were grown overnight at 37° C. and colony-forming units (CFUS) were determined.
Co-expression of mct and mrd in E. coli. To address the notion that MRD and MCT proteins participate as components of a binding protein-dependent drug export system, the mct and mrd genes were co-expressed in E. coli.

SMILES	MC resistance level [1] [µg/mL]	resistance to mitomycin B [2]
CO[C@@]12[C@H](COC(N)=O)C3=C(C(=O)C(C)=C(N)C3=O)N1C[C@@H]1N[C@@H]12 [MC, mitomycin C]	> 150	
COC1=C(C)C(=O)C2=C(C1=O)[C@H](COC(N)=O)[C@@]1(O)[C@@H]3[C@H](CN21)N3C (some centres unmarked) [Mitomycin B, mitomycin B]		high-level resistance
